Laboratory results: ChEMBL document CHEMBL1201862, “PubChem BioAssay data set” (2004)
Active and inactive are the calls of the source.

Key:
Streptococcus = experiment: Group A Streptococcus viability loss, dose response, counter-screen for streptokinase expression inhibitor project, luminescence, BacTiterGlo (AID 1915); format: functional, organism-based;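 note: potency for reduction of bacterial viability or growth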
[1] = target: E3 ubiquitin-protein ligase Mdm2 (Homo sapiens, UniProt Q00987); experiment: enhancers of MDM2-luciferase reporter signal, concentration-effect titration, project on inhibitors of MDM2 ubiquitin ligase, cellular assay, luminescent readout, 384-well plate format (AID 1394); format: functional;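 note: MDM2 E3 inhibitors raise luminescence so EC50 is for signal enhancement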
[2] = Vero E6 cell cytotoxicity, dose response, cytotoxicity control for non-replicating M. tuberculosis project, secondary assay (AID 492998); format: functional, VeroE6; details: Vero C1008
cells [3] = format: functional
[4] = test system: Streptococcus sp. 'group A'; experiment: growth inhibition of control SK(-) GAS strain, dose response, counter-screen for streptokinase expression inhibitor project, luminescence, kanamycin, BacTiterGlo, confirmation (AID 1900); format: functional, organism-based
[5] = THP-1 cell cytotoxicity, dose response, cytotoxicity control for non-replicating M. tuberculosis project (AID 489025); format: functional
[6] = M. tuberculosis growth inhibition, HTS (AID 449762); format: functional
[7] = target: Mitochondrial peptide methionine sulfoxide reductase (Bos taurus, UniProt P54149); experiment: Absorbance-based biochemical high throughput dose response assay for activators of Methionine sulfoxide reductase A (MsrA).; format: functional
[8] = target: Glutathione-S-transferase (Schistosoma japonicum, UniProt Q26513); experiment: biotin-GST/anti-GST TR-FRET signal inhibitors, dose response, artefact control for Vif-APOBEC3G degradation inhibitor project, biochemical (AID 1117362); format: functional
Sequence of Glutathione-S-transferase (Q26513 whole entry): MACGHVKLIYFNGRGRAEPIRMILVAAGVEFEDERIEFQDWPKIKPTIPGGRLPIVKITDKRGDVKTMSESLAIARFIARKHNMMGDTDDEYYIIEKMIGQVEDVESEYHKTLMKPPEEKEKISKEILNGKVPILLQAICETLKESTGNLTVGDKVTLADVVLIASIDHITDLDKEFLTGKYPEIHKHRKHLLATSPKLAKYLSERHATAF

[9] = target: Beta-adrenergic receptor kinase 1 (Homo sapiens, UniProt P25098); experiment: aptamer displacement from bead-bound GRK2 – biochemical, cherry pick 1, bead flow cytometry, dose response (AID 504500)
Sequence of Beta-adrenergic receptor kinase 1 (P25098 whole entry): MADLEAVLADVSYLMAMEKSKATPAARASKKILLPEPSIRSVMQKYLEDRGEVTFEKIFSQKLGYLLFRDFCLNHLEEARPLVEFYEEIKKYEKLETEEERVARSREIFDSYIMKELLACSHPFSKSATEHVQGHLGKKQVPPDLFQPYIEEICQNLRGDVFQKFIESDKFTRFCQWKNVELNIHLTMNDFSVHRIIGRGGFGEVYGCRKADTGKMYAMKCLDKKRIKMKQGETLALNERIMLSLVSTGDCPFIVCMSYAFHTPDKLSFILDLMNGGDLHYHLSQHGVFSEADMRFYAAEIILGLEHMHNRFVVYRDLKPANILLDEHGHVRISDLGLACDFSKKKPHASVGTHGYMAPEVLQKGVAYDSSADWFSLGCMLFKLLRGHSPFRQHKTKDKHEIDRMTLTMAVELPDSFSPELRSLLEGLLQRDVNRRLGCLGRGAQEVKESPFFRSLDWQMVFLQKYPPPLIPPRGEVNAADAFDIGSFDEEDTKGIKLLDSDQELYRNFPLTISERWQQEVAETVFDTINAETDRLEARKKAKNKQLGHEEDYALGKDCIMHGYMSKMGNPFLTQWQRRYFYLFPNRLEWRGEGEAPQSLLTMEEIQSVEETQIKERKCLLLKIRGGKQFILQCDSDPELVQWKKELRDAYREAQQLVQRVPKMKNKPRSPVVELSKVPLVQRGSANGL

[10] = target: Eukaryotic translation initiation factor 4E (Mus musculus, UniProt P63073); experiment: eIF4E–eIF4G protein interaction inhibitors, dose response, biochemical, TR-FRET (AID 855); format: functional;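 note: potency for disrupting eIF4E binding to eIF4GI seen as loss of FRET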
[11] = target: T1, Voltage-gated N-type calcium channel alpha-1B subunit/Amyloid beta A4 precursor protein-binding family A member 1 (Homo sapiens, UniProt Q00975+Q02410); format: protein assay
T1 sequence (Q00975 whole entry): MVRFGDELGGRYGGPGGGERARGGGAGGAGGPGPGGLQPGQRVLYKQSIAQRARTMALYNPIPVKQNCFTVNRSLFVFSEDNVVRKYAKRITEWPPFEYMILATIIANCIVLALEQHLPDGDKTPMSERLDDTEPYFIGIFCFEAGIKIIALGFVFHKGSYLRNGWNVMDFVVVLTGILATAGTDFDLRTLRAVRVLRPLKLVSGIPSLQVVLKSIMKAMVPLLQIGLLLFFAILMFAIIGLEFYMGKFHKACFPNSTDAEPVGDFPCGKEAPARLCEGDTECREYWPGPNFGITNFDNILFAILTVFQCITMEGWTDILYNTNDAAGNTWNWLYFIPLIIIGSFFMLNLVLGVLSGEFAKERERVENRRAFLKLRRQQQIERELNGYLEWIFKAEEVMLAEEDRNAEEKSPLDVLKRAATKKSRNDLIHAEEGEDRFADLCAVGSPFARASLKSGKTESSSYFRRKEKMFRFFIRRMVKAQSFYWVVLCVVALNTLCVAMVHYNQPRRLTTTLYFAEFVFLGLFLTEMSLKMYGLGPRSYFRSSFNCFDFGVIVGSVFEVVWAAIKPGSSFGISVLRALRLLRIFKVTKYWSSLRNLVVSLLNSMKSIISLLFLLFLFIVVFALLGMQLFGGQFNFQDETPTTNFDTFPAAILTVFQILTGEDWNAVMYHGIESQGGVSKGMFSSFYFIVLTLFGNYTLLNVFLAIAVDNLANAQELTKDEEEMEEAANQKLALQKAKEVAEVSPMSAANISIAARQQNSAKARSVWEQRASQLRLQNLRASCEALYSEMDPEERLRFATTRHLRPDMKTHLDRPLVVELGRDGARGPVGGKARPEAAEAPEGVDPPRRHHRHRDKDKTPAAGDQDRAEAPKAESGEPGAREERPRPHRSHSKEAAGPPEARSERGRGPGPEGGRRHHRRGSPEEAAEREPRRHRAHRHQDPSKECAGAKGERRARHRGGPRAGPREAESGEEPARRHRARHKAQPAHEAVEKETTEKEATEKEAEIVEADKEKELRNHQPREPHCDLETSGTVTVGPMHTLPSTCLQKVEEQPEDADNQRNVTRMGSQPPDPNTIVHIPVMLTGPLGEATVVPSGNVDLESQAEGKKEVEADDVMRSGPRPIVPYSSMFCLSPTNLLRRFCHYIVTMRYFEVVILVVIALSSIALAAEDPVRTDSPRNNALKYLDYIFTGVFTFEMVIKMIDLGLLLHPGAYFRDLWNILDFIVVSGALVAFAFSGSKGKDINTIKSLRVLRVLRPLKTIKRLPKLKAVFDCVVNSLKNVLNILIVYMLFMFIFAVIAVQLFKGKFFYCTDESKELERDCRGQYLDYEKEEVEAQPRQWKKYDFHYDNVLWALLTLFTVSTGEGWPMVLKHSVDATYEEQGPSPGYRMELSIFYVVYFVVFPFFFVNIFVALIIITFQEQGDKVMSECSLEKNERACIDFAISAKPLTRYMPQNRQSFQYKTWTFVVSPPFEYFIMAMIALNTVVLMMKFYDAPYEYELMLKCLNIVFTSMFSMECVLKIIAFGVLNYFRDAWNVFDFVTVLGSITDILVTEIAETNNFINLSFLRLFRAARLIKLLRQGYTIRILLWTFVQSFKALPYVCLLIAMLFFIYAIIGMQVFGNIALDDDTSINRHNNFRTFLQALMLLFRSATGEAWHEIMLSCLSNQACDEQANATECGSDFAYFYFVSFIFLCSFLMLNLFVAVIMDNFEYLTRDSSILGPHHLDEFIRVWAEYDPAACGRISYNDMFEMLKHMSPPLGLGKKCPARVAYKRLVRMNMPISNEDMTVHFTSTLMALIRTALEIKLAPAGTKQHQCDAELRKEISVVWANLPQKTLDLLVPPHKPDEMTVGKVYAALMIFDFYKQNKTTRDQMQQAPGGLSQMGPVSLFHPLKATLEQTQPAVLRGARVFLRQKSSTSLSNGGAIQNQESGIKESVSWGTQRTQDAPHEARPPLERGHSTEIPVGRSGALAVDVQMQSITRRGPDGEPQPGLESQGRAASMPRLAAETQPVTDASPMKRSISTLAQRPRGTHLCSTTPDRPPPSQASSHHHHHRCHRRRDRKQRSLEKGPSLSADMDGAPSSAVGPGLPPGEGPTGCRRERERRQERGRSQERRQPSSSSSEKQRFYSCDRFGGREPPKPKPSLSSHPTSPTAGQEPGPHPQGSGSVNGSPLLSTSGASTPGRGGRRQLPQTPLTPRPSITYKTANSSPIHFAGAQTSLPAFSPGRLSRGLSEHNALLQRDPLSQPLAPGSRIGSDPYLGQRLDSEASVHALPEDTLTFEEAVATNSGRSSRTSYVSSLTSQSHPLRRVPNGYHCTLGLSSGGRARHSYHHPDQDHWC
T1 sequence (Q02410 whole entry): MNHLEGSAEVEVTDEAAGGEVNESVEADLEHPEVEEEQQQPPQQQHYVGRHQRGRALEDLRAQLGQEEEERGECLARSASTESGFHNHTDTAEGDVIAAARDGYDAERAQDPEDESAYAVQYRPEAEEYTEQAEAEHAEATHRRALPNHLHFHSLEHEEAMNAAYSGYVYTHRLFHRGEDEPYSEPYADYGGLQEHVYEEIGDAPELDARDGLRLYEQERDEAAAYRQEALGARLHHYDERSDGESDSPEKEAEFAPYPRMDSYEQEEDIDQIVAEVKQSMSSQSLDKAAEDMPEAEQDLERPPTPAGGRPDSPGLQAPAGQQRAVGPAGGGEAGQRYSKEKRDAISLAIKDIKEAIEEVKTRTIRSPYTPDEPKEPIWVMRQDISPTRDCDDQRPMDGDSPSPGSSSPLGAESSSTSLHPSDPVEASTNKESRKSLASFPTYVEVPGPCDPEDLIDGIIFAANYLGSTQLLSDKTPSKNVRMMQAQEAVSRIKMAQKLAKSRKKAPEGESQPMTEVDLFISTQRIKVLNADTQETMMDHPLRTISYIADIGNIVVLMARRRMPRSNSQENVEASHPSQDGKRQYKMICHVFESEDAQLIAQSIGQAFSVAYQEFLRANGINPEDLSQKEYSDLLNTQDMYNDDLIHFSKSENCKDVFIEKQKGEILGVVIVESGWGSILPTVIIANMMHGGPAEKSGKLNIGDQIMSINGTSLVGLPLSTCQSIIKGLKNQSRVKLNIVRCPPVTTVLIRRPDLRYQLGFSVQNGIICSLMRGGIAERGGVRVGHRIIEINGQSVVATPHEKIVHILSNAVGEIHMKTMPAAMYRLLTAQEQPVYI

SUMO-activating enzyme [12] = target: T2, SUMO-activating enzyme (Homo sapiens, UniProt Q9UBT2); experiment: SUMOylation inhibitor hit validation, confirmation, SUMOylation inhibitor project, biochemical, AlphaScreen (AID 2018); format: functional
T2 sequence (Q9UBE0 whole entry): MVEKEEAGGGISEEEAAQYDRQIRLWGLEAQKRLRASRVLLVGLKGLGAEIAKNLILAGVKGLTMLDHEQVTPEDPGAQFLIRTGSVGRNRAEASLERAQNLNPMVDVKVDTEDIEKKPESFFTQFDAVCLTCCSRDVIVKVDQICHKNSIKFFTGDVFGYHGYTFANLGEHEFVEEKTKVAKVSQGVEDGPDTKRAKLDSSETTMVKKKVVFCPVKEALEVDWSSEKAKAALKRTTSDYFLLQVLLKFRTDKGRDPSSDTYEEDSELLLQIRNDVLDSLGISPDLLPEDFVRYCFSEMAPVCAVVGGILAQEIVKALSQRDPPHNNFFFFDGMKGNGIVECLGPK
T2 sequence (Q9UBT2 whole entry): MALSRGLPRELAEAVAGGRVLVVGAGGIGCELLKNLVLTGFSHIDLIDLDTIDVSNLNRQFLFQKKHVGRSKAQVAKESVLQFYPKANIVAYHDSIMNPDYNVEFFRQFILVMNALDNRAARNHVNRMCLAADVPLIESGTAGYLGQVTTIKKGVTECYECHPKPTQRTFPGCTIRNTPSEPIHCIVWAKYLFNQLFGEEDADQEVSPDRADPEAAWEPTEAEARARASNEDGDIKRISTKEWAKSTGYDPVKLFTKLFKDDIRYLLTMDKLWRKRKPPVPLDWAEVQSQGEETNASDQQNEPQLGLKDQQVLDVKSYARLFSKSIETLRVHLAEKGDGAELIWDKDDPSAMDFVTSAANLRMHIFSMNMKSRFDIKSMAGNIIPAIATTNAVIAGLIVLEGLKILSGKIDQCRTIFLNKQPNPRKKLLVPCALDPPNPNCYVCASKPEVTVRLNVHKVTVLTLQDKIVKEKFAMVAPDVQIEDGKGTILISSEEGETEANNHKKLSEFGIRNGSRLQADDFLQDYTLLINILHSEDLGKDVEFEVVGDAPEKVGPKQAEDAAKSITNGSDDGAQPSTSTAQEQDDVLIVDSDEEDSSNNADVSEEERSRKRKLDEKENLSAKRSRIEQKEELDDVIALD

[13] = target: Induced myeloid leukemia cell differentiation protein Mcl-1 (Homo sapiens, UniProt Q07820); format: functional
[14] = target: Bifunctional protein GlmU (Mycobacterium tuberculosis, UniProt P9WMN3); experiment: Inhibitors of Mycobacterial Glucosamine-1-phosphate acetyl transferase (GlmU). Secondary screen.; parameters: species or system Mycobacterium tuberculosis H37Rv
[15] = target: T1, Voltage-gated N-type calcium channel alpha-1B subunit/Amyloid beta A4 precursor protein-binding family A member 1; format: protein assay; remark: listed apart in the source
ORF 73 = ORF 73 (Human herpesvirus 8, UniProt O40947); experiment: inhibitors of C-LANA binding to LBS DNA, dose response, biochemical, fluorescence polarization, cherry-picked samples (AID 504725); parameters: species or system Human gammaherpesvirus 8;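 note: fluorescence polarization of a labeled DNA duplex reporting LANA DNA binding; potency is for inhibitors that block LANA binding to the DNA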
Large T antigen = Large T antigen (Simian virus 40, UniProt P03070); format: functional, Betapolyomavirus macacae;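 note: Confirmatory-stage PubChem screen for compounds that inhibit SV40 T antigen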
SUMO-activating enzyme [16] = target: T2, SUMO-activating enzyme; experiment: inhibitors of in vitro SUMOylation cascade, primary screen, biochemical, HTRF, uHTS (AID 2006); format: protein-complex assay
[17] = target: Heat shock protein HSP 90-alpha (Homo sapiens, UniProt P07900); experiment: Luminescence-based dose response biochemical high throughput screening assay for inhibitors of the Heat Shock Protein 90 (HSP90). [Related pubchem assays: 1831 (Summary AID.), 1846 (Confirmation screen.), 1789 (Primary screen.)]
[18] = Vero cell cytotoxicity, dose response, cytotoxicity control for Vif-APOBEC3G degradation inhibitor project, Vero cells (AID 1117358); format: functional; details: Human immunodeficiency virus 1, Vero
[19] = P. falciparum Dd2 growth inhibitors, dose response, SYBR Green, dry powder samples, set 9 (AID 1159568); format: functional, cell-based
[20] = HepG2 cell cytotoxicity, dose response, cytotoxicity control, plate reader, dry powder samples (AID 1159569); format: functional, cell-based;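 note: inhibitor potency with signal falling toward the positive control level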
[21] = P. falciparum Dd2 growth inhibitors, dose response, SYBR Green, cherry-picked samples (AID 1159567); format: functional, cell-based
[22] = HepG2 cell cytotoxicity, dose response, cytotoxicity control, cherry-picked samples (AID 1159577); format: functional, cell-based
[23] = P. falciparum ATP4 D1247Y mutant growth inhibitors, dose response, NITD609-resistant line, SYBR Green, dry powder (AID 1159571); format: functional, cell-based;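 note: parasites synchronized at ring stage by sorbitol before testing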
[24] = P. falciparum Dd2 growth inhibitors, dose response, SYBR Green, dry powder samples (AID 1159566); format: functional, cell-based;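 note: potency for growth inhibition with lower SYBR green DNA signal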
[25] = P. falciparum 3D7-ScDHODH growth inhibitors, dose response, SYBR Green, dry powder samples (AID 1159570); format: functional, cell-based;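 note: parasite growth measured after 72 hours of compound exposure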
[26] = Mtb BioA inhibitors by displacement, dose response, biochemical, coupled fluorescence displacement, 20-point, dry powder (AID 743357); format: functional
[27] = HepG2 cell cytotoxicity, dose response, cytotoxicity control, luminescence, dry powder, set 9 (AID 743358); format: functional, cell-based
cells [28] = format: functional, cell-based; details: INS-1E
[29] = half-maximal inhibitory concentration for glucagon-like peptide-1 release, STC-1 cell line, dose-response (AID 1117345); format: functional, cell-based
[30] = Dose-response inhibition of insulin secretion in a rat insulinoma line at 5 mM glucose (AID 1117331); format: functional, cell-based; details: INS-1E
[31] = microbe, parasite or virus in culture; format: functional; details: Mycobacterium tuberculosis
[32] = Glucagon-like peptide 1 release potency, NCI-H716 cell line, dose-response, half-maximal inhibitory concentration (AID 1117344); format: functional, cell-based
Bcl-2-related protein A1 [33] = target: T3, Bcl-2-related protein A1 (Mus musculus, UniProt Q07440); experiment: Bfl-1 inhibitors blocking BH3 peptide binding, confirmation, biochemical, TR-FRET, mouse Bfl-1 (AID 621);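 note: TR-FRET binding of GST-Bfl-1 to FITC-labelled Bid peptide via terbium antibody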
T3 sequence (Q07440 whole entry): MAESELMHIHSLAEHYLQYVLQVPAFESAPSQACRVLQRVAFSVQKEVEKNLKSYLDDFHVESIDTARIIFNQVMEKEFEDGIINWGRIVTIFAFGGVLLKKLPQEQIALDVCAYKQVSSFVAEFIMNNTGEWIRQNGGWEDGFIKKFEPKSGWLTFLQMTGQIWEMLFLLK

Bcl-2-related protein A1 [34] = target: T3, Bcl-2-related protein A1; experiment: Bfl-1 inhibitors, primary screen, biochemical, fluorescence polarization, FITC-Bid, mouse (AID 432)
[35] = cytotoxicity toward HT-29 cells – cell-based, CellTiter-Glo luminescence, IC50, dose response (AID 1117330); format: functional
Cytochrome P450 2C19 = Cytochrome P450 2C19 (Homo sapiens, UniProt P33261); experiment: Cytochrome panel assay with activity outcomes. Panel member name: p450-cyp2c19 Compounds with AC50 equal or less than 10 uM are considered active; format: functional; details: read-out: AC50
[36] = CellTiter-Glo luminescent dose response of DLD-1 viability loss (AID 1117352); format: functional
[37] = target: Lysine-specific demethylase 4C (Homo sapiens, UniProt Q9H3R0); experiment: GASC-1 (JMJD2C) histone demethylase inhibitors, dose response, biochemical, DELFIA europium, cherry-picked samples (AID 488835); format: functional
[38] = SNU-C1 cell viability reduction, dose response, CellTiter-Glo luminescence (AID 1117323); format: functional, cell-based
[39] = RKO cell viability reduction, dose response, CellTiter-Glo luminescence (AID 1117322); format: functional
Cytochrome P450 2D6 = Cytochrome P450 2D6 (Homo sapiens, UniProt P10635);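 note: CYP2D6 member of a cytochrome P450 panel assay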
[40] = cytotoxicity toward Colo320 cells – cell-based, CellTiter-Glo luminescence, IC50, dose response (AID 1117334); format: functional; details: COLO 320
[41] = Concentration-dependent survival of SW480 colon cancer line, luminescence detection with CellTiter-Glo, half-maximal inhibitory concentration (AID 1117338); format: functional
[42] = HCT116 cell viability decrease, GSK3B pretreatment – CellTiter-Glo, IC50, dose response (AID 1117339); format: functional; details: HCT-116
[43] = target: Intestinal-type alkaline phosphatase (Homo sapiens, UniProt P09923); experiment: inhibition of human intestinal alkaline phosphatase – biochemical, dose response (AID 488876); format: functional
[44] = cytotoxicity toward HCT116 cells – cell-based, CellTiter-Glo luminescence, IC50, dose response (AID 1117332); format: functional; details: HCT-116
[45] = target: Intestinal-type alkaline phosphatase (Mus musculus, UniProt P24822); experiment: PubChem AID 488785; format: functional
[46] = target: T4, Alkaline phosphatase, tissue-nonspecific isozyme (Homo sapiens, UniProt P05186); experiment: TNAP enzyme inhibition by screening hits, dose response, selectivity assay for mouse IAP inhibitor project, biochemical, human TNAP, uHTS hits (AID 488906); format: functional
T4 sequence (P05186 whole entry): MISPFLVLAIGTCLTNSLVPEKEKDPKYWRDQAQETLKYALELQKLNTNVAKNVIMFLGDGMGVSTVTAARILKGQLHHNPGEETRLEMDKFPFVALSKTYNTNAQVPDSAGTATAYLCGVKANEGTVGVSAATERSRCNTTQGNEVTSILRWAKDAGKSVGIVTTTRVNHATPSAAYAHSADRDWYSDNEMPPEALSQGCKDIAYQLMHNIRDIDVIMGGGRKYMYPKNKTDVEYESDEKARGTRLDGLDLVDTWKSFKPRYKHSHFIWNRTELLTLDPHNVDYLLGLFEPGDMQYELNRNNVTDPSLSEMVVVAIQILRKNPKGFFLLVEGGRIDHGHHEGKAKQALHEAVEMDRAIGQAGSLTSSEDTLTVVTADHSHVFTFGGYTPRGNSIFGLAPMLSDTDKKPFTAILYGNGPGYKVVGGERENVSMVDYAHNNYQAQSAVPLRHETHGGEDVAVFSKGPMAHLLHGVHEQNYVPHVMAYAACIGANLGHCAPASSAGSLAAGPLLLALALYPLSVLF

Compound: O=C(Nc1nnc(-c2ccc(Cl)cc2)o1)c1ccccc1Br
- EC50 (Streptococcus): 5.91 µM (active)
- EC50 [1]: 12.8 µM (not active)
- CC50 [2]: 18 µM (active)
- IC50 (cells [3]): 3.74 µM (active)
- EC50 [4]: 3.15 µM (active)
- CC50 [5]: 37 µM (active)

Compound: Cc1ccc2[nH]c3c(c2c1)CN(C(=O)CN1CCN(c2ccccn2)CC1)CC3
- IC50 [6]: > 100 µM (active)
- EC50 [7]: > 104 µM (inactive)

Compound: C=C(C)C(=O)Nc1cccc(C2=NOC3(C2)C[C@@H](C(N)=O)N(C(=O)c2cc([N+](=O)[O-])cc([N+](=O)[O-])c2)C3)c1 (some centres not stated)
- IC50 [8]: > 100 µM (active)
- EC50 [9]: 10.6 µM (inactive)

Compound: Cc1ccc(NC(=O)CN2C(=O)N/C(=C/c3cccn3-c3ccc(C(=O)O)cc3)C2=O)cc1
- IC50 [10]: 9.54 µM (active)
- EC50 [9]: 1.21 µM (active)
- IC50 [11]: 10.5 µM (active)
- IC50 (SUMO-activating enzyme [12]): 1.09 µM (active)
- IC50 [13]: 0.996 µM (not active)
- IC50 [14]: 29.4 µM (active)
- IC50 [15]: 28.9 µM (active)
- AC50 (ORF 73): 33.9 µM (active)
- IC50 (Large T antigen): 24.7 µM (active)
- IC50 (SUMO-activating enzyme [16]): 12 µM (active)

Compound: Cc1nc(NC(=O)c2ccc(F)cc2)sc1C(=O)Nc1ccc2c(c1)CCC2
- IC50 [17]: 3.84 µM (active)

Compound: O=C(NCCc1ccc(Cl)cc1)C1CCN(C(=O)c2sccc2-n2cccc2)CC1
- CC50 [18]: > 40 µM (active)

Compound: COc1ccc2c3c([nH]c2c1)[C@H](CO)N(Cc1ccccc1)CC31CN(C(=O)c2ccccn2)C1
- AC50 [19]: 6.79 µM (active)

Compound: C[C@H]1CN([C@@H](C)CO)C(=O)c2c(c3ccccc3n2C)-c2ccccc2CO[C@H]1CN(C)Cc1ccc(-c2ccccc2)cc1
- AC50 [20]: 28.9 µM (active)
- AC50 [21]: 2.64 µM (active)
- AC50 [22]: > 39 µM (inactive)
- AC50 [23]: 2.1 µM (active)
- AC50 [24]: 1.54 µM (active)
- AC50 [25]: 3.14 µM (active)

Compound: CC(C)NC(=O)N1CC[C@@H]2[C@@H](CO)N(C)c3ccc(-c4cccc(F)c4)cc3[C@@H]21
- AC50 [26]: 11.8 µM (active)
- AC50 [27]: > 52 µM (inactive)

Compound: Clc1ccc2c(c1)CCc1cccnc1C2=C1CCNCC1 [DESLORATADINE]
- IC50 (cells [28]): > 33.3 µM (inactive)
- IC50 [29]: > 40 µM (inactive)
- IC50 [30]: 7.11 µM (inactive)
- CC50 [31]: 32.9 µM (active)
- IC50 [32]: > 40 µM (inactive)

Compound: CC(C)[C@H]1C(=O)N2CCC[C@H]2[C@]2(O)O[C@](NC(=O)[C@@H]3C=C4c5cccc6[nH]cc(c56)C[C@H]4N(C)C3)(C(C)C)C(=O)N12 [ERGOCORNINE]
- IC50 (Bcl-2-related protein A1 [33]): > 100 µM (not active)
- IC50 (Bcl-2-related protein A1 [34]): > 100 µM (not active)

Compound: N#CC(C#N)=Cc1ccc(O)c(O)c1 [TYRPHOSTIN 23]
- IC50 [35]: > 20 µM (inactive)
- AC50 (Cytochrome P450 2C19): 15.8 µM (inconclusive)
- IC50 [36]: > 20 µM (inactive)
- AC50 [37]: 10.8 µM (active)
- IC50 [38]: > 20 µM (inactive)
- IC50 [39]: 3.78 µM (active)
- AC50 (Cytochrome P450 2D6): 20 µM (inconclusive)
- IC50 [40]: 6.74 µM (inactive)
- IC50 [41]: > 20 µM (inactive)
- IC50 [42]: > 20 µM (inactive)
- IC50 [43]: > 100 µM (inactive)
- IC50 [44]: > 20 µM (inactive)
- IC50 [45]: 4.22 µM (active)
- IC50 [46]: 9.97 µM (active)
